Legend:
Type in all cases: cell-based
[1] = molecular target: T1, mouse anoctamin 1 (mANO1) (Mus musculus, UniProt Q8BHY3); assay: whole-cell patch clamp in HEK293T cells, dose-response at −[…] mV
T1 construct: gene Ano1
T1 sequence (Q8BHY3 1-960): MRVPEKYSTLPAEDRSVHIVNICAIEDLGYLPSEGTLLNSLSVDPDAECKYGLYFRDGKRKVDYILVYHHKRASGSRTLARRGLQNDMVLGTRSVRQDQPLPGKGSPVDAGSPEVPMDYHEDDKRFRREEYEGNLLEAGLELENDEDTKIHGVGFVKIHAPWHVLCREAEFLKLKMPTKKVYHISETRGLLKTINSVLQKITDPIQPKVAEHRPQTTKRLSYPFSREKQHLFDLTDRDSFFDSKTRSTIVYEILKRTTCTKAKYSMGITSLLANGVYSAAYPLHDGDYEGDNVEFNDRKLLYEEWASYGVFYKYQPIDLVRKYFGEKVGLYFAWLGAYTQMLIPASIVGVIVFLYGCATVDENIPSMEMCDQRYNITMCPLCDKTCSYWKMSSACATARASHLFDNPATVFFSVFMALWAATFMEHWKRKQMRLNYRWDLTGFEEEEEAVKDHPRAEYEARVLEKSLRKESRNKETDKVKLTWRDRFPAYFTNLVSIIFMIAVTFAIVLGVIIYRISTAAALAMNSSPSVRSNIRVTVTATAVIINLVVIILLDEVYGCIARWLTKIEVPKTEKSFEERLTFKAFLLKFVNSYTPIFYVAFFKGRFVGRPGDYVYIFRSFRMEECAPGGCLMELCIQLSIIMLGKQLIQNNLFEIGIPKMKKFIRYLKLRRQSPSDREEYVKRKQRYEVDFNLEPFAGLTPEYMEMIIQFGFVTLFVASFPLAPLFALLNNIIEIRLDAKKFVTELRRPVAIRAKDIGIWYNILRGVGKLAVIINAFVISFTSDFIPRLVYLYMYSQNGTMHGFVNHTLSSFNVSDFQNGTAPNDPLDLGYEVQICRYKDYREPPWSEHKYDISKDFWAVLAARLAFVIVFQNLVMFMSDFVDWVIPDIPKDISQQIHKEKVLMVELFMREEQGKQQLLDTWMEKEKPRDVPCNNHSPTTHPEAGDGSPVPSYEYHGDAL

human TRPA1 (hTRPA1) = human TRPA1 (hTRPA1) (Homo sapiens, UniProt O75762); assay: whole-cell patch clamp in HEK293T cells; inhibits AITC currents at […] and weakly activates alone
[2] = molecular target: T1, mouse anoctamin 1 (mANO1); assay: whole-cell patch clamp in HEK293T cells at […]

Chain of human TRPA1 (hTRPA1) (O75762 whole entry): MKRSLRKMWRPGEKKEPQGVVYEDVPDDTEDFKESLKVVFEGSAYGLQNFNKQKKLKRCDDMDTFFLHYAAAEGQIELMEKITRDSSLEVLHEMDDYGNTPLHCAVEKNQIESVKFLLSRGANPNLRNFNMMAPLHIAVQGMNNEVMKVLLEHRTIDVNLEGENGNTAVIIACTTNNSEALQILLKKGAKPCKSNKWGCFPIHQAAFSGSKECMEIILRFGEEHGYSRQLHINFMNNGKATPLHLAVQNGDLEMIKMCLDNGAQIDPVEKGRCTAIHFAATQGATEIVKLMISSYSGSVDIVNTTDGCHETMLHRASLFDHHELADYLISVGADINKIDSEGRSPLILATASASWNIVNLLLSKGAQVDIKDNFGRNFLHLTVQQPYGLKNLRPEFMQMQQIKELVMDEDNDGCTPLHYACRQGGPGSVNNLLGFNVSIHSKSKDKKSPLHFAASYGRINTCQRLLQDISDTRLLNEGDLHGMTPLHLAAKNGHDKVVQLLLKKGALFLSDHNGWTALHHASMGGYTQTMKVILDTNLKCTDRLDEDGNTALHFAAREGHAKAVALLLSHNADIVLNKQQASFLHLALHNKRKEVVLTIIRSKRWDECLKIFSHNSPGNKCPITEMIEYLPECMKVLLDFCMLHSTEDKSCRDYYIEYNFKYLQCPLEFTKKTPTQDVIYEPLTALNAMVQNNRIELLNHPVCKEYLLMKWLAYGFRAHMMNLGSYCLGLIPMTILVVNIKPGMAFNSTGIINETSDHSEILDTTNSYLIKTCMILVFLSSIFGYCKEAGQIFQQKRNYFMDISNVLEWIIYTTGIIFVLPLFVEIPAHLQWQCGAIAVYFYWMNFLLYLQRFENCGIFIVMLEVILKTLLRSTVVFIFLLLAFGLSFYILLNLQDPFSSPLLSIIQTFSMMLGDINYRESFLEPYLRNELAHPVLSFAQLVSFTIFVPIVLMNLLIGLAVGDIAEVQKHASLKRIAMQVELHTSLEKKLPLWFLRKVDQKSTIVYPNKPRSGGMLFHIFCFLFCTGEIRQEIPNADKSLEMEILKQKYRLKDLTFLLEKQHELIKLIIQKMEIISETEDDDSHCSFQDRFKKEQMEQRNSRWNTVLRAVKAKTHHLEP

SMILES	IC50 [1]	whole-cell patch clamp in HEK293T cells; inhibits AITC currents at 3 mM and weak (human TRPA1 (hTRPA1))	whole-cell patch clamp in HEK293T cells at 3 mM [2]
CC(C)C1CCC(O)CC1 (stereo not shown) [4-iPr-CyH-OH, 4-isopropylcyclohexanol]	1090 µM	4-iPr-CyH-OH did not activate hTRPV1 (Fig. 5d), yet did slightly but significantly activate hTRPA1	–
CC(C)C1CCCCC1 [iPr-CyH, isopropylcyclohexane]	–	–	isopropylcyclohexane (iPr-CyH) strongly inhibited mANO1 currents to a similar degree as that seen for d-menthol
CC(C)[C@@H]1CC[C@@H](C)C[C@H]1O [l-menthol]	441 µM	–	–

Reference: article PMC5320485, “4-isopropylcyclohexanol has potential analgesic effects through the inhibition of anoctamin 1, TRPV1 and TRPA1 channel activities” (Scientific Reports, 2017)
